From US5883121A, “Epoxysuccinamide derivative or salt thereof, and medicine comprising the same” (Taiho Pharmaceutical Co., Ltd., priority 1995, dated 1999)
Where a name gives a salt, the structure may show the parent alone.

How the values were obtained:
Format in all cases: biochemical
cathepsin L = biological target: T1, cathepsin L (Rattus norvegicus, UniProt P07154); experiment: Determination of inhibition rate against cathepsin L; conditions: for B/L: IC50 against cathepsin B divided by IC50 against cathepsin L; for IC50: cathepsin L from rat liver, substrate Z-Phe-Arg-MCA, pH 5.5, 30° C, 10 minutes
T1 construct: extracted from a rat liver and completely purified; from tissue; host or cells: rat liver
T1 sequence (P07154 114-288 limits assumed): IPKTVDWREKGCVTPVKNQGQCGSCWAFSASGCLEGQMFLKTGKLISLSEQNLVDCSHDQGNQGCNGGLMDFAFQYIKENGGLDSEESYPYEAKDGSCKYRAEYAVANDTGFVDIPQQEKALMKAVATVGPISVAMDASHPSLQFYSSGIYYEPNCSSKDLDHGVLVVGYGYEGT
T1 sequence (P07154 291-334 limits assumed): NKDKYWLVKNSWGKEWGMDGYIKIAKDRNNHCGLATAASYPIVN
Experimental: (§1) Determination of inhibition rate against cathepsin L, B and H […]
(§2) Each cathepsin was diluted with a diluent (0.1% Brij 35) to adjust its concentration to 0.3 U (0.1 U: a concentration at which 1.0 nmol of MCA is released per minute at 37° C.). To 500 μl of this solution, were added 250 μl of an activator/buffer (340 mM sodium acetate, 60 mM acetic acid, 4 mM disodium EDTA; pH 5.5). After the mixture was incubated for 1 minute at 30° C., the sample solution of the predetermined concentration and […] of a substrate solution were added to conduct a reaction for 10 minutes.

cathepsin H = biological target: T2, cathepsin H (Homo sapiens, UniProt P09668); experiment: Determination of inhibition rate against cathepsin H; conditions: purified cathepsin H (Sigma Co.); substrate Arg-MCA; pH 5.5; 30° C; 10 minutes
T2 construct: purchased Sigma Co
T2 sequence (P09668 98-335): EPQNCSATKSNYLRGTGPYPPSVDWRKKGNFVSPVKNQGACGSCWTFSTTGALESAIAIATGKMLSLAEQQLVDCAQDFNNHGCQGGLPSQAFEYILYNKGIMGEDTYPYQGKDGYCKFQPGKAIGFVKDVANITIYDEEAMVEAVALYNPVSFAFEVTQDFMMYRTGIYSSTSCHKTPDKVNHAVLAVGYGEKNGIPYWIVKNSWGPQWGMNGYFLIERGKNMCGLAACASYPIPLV
Experimental: Determination of inhibition rate against cathepsin L, B and H
A purified product was purchased from Sigma Co. and used as cathepsin H, and as a substrate thereof, Arg-MCA was used.
as §2

cathepsin B = biological target: T3, cathepsin B (Rattus norvegicus, UniProt P00787); experiment: Determination of inhibition rate against cathepsin B; conditions: cathepsin B from rat liver; substrate Z-Arg-Arg-MCA; pH 5.5; 30° C; 10 minutes
T3 construct: extracted from a rat liver and completely purified; from tissue; host or cells: rat liver
T3 sequence (P00787 129-333 limits assumed): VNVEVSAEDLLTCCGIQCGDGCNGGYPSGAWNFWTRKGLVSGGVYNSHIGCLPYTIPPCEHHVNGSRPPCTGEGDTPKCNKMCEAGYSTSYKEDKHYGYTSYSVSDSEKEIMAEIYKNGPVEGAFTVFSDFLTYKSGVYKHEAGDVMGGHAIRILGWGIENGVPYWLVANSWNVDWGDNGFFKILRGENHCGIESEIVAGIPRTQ
T3 sequence (P00787 80-126 limits assumed): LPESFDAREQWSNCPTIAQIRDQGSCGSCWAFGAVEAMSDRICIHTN
Experimental: as §1, §2

SMILES | B/L (cathepsin L) | IC50 (cathepsin L) | IC50 (cathepsin H) | IC50 (cathepsin B)
NCCCC[C@H](NC(=O)[C@H]1O[C@@H]1C(=O)NCCc1ccccc1)C(=O)Nc1cccc2ccccc12 [Example 2, Nα-[L-3-trans-(2-phenylethylcarbamoyl)oxirane-2-carbonyl]-L-lysine-1-naphthylamide hydrochloride] | > 285 | 35 nM | > 10 µM | > 10 µM
NCCCC[C@H](NC(=O)[C@H]1O[C@@H]1C(=O)N[C@@H](Cc1ccccc1)C(N)=O)C(=O)Nc1cccc2ccccc12 [Example 14, Nα-{L-3-trans-[(S)-1-carbamoyl-2-phenylethylcarbamoyl]oxirane-2-carbonyl}-L-lysine-1-naphthylamide hydrochloride] | > 667 | 15 nM | > 10 µM | > 10 µM
NCCCC[C@H](NC(=O)[C@H]1O[C@@H]1C(=O)N[C@@H](Cc1ccccc1)C(=O)NCc1ccccc1)C(=O)Nc1cccc2ccccc12 [Example 26, Nα-{L-3-trans-[(S)-1-benzylcarbamoyl-2-phenylethylcarbamoyl]oxirane-2-carbonyl}-L-lysine-1-naphthylamide hydrochloride] | 7500 | 0.4 nM | 3.2 µM | 3 µM
NCCCC[C@H](NC(=O)[C@H]1O[C@@H]1C(=O)Nc1cccc2ccccc12)C(=O)Nc1cccc2ccccc12 [Example 30, Nα-[L-3-trans-(1-naphthylcarbamoyl)oxirane-2-carbonyl]-L-lysine-1-naphthylamide hydrochloride] | 94.4 | 72 nM | 6 µM | 6.8 µM
CC(=O)NCCCC[C@H](NC(=O)[C@H]1O[C@@H]1C(=O)N[C@@H](Cc1ccccc1)C(=O)NCCc1ccccc1)C(=O)Nc1cccc2ccccc12 [Example 32, Nα-{L-3-trans-[(S)-1-(2-phenylethylcarbamoyl)-2-phenylethylcarbamoyl]oxirane-2-carbonyl}-Nε-acetyl-L-lysine-1-naphthylamide] | 17500 | 0.04 nM | 4.8 µM | 7 µM
NCCCCCCCCNC(=O)[C@H](Cc1ccccc1)NC(=O)[C@H]1O[C@@H]1C(=O)O [Preparation Example 61, N-{N-[(2S,3S)-3-trans-Carboxyoxirane-2-carbonyl]-L-phenylalanyl}-1,8-diaminooctane, reference compound] | 28.4 | 0.81 nM | – | 0.023 µM
